Reference: patent US7244712B2, “Aminoglycoside antibiotics and methods of using same” (priority 2004, dated 2007)
Converted amounts (≈) assume the structure as drawn.

Key:
[1] = test system: P. aeruginosa (ATCC 27853); assay: MIC, P. aeruginosa; type: cell-based; conditions: growth inhibition greater than 90%
Procedure: Minimal inhibitory concentrations (MIC) were measured according to the published method (Greenberg, W. A., Priestley, E. S., Sears, P. S., Alper, P. B., Rosenbohm, C., Hendrix, M., Hung, S.-C., & Wong, C.-H. (1999) J. Am. Chem. Soc. 121, 6527-6541). E. coli (ATCC 25922) (both wild type and pMM-transformed) and P. aeruginosa (ATCC 27853) were grown in medium 2 to an optical density OD 600 of 0.6-0.8. The inoculi were diluted to OD 600 ˜0.1 in medium 2 and 1 mL of the culture was placed in 13 mL test tubes. The desired concentrations of antibiotic were added from stock solutions. […] The absorbance at 600 nm of each sample was read and MIC was taken as the lowest antibiotic concentration inhibiting bacterial growth by greater than 90%.

E. coli (ATCC 25922) = assay: Antibiotic activity disk assay, wild type E. coli; type: cell-based; conditions: FIG. 7A
Procedure: E. coli (ATCC 25922) and P. aeruginosa (ATCC 27853) (BD Bioscience) were inoculated in 3 mL of the medium 2 (U.S. Pharmacopia), containing 6 g peptone, 3 g yeast extract and 1.5 g beef extract per 1 L, pH 6.6, and were grown in a shaker for 6 h at 37° C. until an OD 560=0.6-0.8 was reached.
For the antibiotic disk assay, […] of each bacterial inoculum was mixed with 10 mL of melted agar (1.5% medium 2 agar, BD Bioscience) at 50-55° C. and poured onto 100 mm Petri dishes. Sterile Whatmann 3 MM 5 mm paper disks were soaked with antibiotic solutions and allowed to dry. The disks were positioned evenly on the surface of bacterial-inoculated solid agar and the plates were incubated at 37° C. for 1-2 days. MIC and bactericide index measurements.

S. aureus = assay: Antibacterial activity against S. aureus; type: cell-based
70S ribosome = assay: Fluorescence anisotropy binding to 70S ribosomes; conditions: competition with CRP, E. coli ribosomes; read-out: Dissociation constant (KD) with 70S ribosome
Procedure: After establishing the lack of stereospecificity in the binding of aminoglycosides to the A-site RNA constructs (FIG. 9A-C) where the binding affinity, KD, is about 0.1 μM to about 100 μM, the stereospecificity of aminoglycoside binding to intact ribosomes was determined. Both yeast and E. coli ribosomes were prepared and aminoglycoside binding was measured using fluorescence anisotropy methods. For example, fluorescence anisotropy methods recited in Wang, Y., and Rando, R. R. Chem. Biol. (1995) 2, 281-290; and Wang, Y., Hamasaki, K., and Rando, R. R. Biochemistry (1997) 36,768-779. CRP was used as the binding probe. […] Binding data reported herein for aminoglycoside compounds with eukaryotic yeast ribosomes are similar to binding data for said aminoglycoside compounds with ribosoimes in bacteria and with eukaryotic A-site rRNA constructs.
5-Carboxytetramethylrhodamine-labeled paromomycin (CRP) and tobramycin (CRT) concentrations were determined spectroscopically at 550 nm using a molar extinction coefficient of 6.00×10 4 M −1 cm −1. Fluorescence anisotropy measurements were performed on a Perkin-Elmer LS-50B luminescence spectrometer equipped with a thermostat accurate to ±0.1° C. as indicated previously (Wang, Y., Hamasaki, K., & Rando, R. R. (1997) Biochemistry 36, 768-779). The tracer solution was excited at 550 nm and monitored at 580 nm. The integration time was 5 s. For every point, 6 measurements were taken, and their average values were used for calculation. Measurements were carried out in a buffer solution containing 150 mM NaCl, 5 mM KCl, 1 mM CaCl2, 1 mM MgCl2, and 20 mM HEPES (pH 7.5). Prior to measurements, RNA constructs were renatured by incubating in binding buffer {150 mM NaCl, 5 mM KCl, 1 mM CaCl2, 1 mM MgCl2, and 20 mM HEPES (pH 7.5)} for 3 minutes at 90° C. followed by slow cooling to 25° C.
Equation 1 was used for the determination of the dissociation constant (Kd) for the interactions between RNA or ribosome and CRP. A=A0+DA{(RNA)0+(CRP)0+Kd−({(RNA)0+(CRP)0+Kd}^2−4(RNA)0(CRP)0)½}/2 where A and A0 are the fluorescence anisotropy of CRP in the presence and absence of RNA, respectively, and DA is the difference between the fluorescence anisotropy of CRP in the presence of an extrapolated infinite concentration of RNA minus the fluorescence anisotropy in the absence of RNA. (RNA)0 and (CRP)0 are the initial concentrations of RNA and CRP, respectively.
Equation 2 is used for the calculation of the KD values in the competition binding assay. (aminoglycoside)0={KD(A−−A)/Kd(A−A0)+1}{(RNA)0−Kd(A−A0)/(A−−A)−(CRP)0(A−A0)/(A−−A)} where KD is the dissociation constant between the RNA and the aminoglycosides; (aminoglycoside)0 is the initial concentration of the aminoglycosides; AL is anisotropy of completely bound tracer. Both Kd and KD were determined by non-linear curve fitting using the equations described above, and are presented as mean values of three independent measurements.
The purification of E. coli (E600) 70S ribosomes was carried out according to the published procedure (Lazaro, E., van den Broek, L. A. G. M., Felix, A. S., Ottenheijm, H. C. J., Ballesta, J. P. G. (1991) Biochemistry 30, 9642-9648). E. coli MRE600 were grown for 12 h in 6L of LB medium (10 g trypton, 5 g yeast extract, 5 g NaCl per 1 L, pH 7.0) at 37° C. Crude ribosomes were precipitated from clarified supernatant by 4 h centrifugation at 25,000 rpm in Beckman SW 28 rotor at 4° C. The ribosome pellets were collected in 5 mL of buffer BR1, containing 10 mM HEPES, pH 7.5, 500 mM ammonium acetate, 100 mM magnesium chloride and 2.5 mM DTT. The ribosome suspension was centrifuged for 20 min at 15000 rpm to be clarified. The clarified sample was loaded over two layers of 20% and 40% sucrose in buffer BR1 and centrifuged for 18 hr at 19000 rpm in Beckman SW28 rotor at 4° C. […]

NCC1OC(OC2C(N)CC(N)C(O)C2O)C(N)C(O)C1O [L-Neamine]
Minimal inhibitory concentration (MIC), P. aeruginosa [1]: 1600 µM (≈ 516 µg/mL) | Antibiotic activity in disk assay, WT E. coli (E. coli (ATCC 25922)): somewhat lower activity | Antibacterial activity against S. aureus (S. aureus): little to no antibacterial activity | Kd (70S ribosome): 2690 ± 460 nM
